≈ marks a conversion by molar mass, not a printed value. Where two headings read alike, the source gives them in different places.
Assays:
[1] = Temperature/relative humidity stress storage; type: physicochemical
[2] = physchem; conditions: 25 °C, pH 1.8, aqueous with cosolvent or surfactant or cyclodextrin, thermodynamic from solid
Method: (§1) A solid sample of 400-450 mg was stirred in 50 mL of dissolution medium (HCl buffer, pH 1.8, with 1% sodium lauryl sulfate) using a mechanical stir rod. Aliquots were filtered using 0.2-μm nylon syringe filters and immediately diluted 1 mL→50 mL, then 5 mL→25 mL with dissolution medium in Class A glassware, a final dilution factor of 250.
(§2) Dissolution and solubility samples solutions were analyzed by a Beckman DU 640 single-beam spectrophotometer. A 1.000-cm quartz cuvette and an analysis wavelength of 228.40 nm were utilized. The detector was zeroed with a cuvette filled with dissolution medium.
(§3) XRPD analyses were carried out on a Shimadzu XRD-6000 X-ray powder diffractometer using Cu Kα radiation. The instrument is equipped with a fine focus X-ray tube. The tube power and amperage were set at 40 kV and 40 mA, respectively. The divergence and scattering slits were set at 1° and the receiving slit was set at 0.15 mm. Diffracted radiation was detected by a NaI scintillation detector. A theta-two theta continuous scan at 3°/min (0.4 sec/0.02° step) from 2.5 to 40°2θ was used. A silicon standard was analyzed each day to check the instrument alignment. Samples were packed in an aluminum holder with silicon insert.

[3] = pH 1.8
Method: as §1, §2, §3

[4] = Intrinsic dissolution (Woods apparatus); type: physicochemical
Method: Dissolution experiments were carried out in a VanKel VK6010-8 dissolution apparatus equipped with a VK650A heater/circulator. An intrinsic dissolution apparatus (Woods apparatus) was used. Samples were compressed at 1.5 metric tons (1000 psi) for 1 min using the Woods apparatus in a hydraulic press, giving a sample surface of 0.50 cm^2. […] The medium was degassed by vacuum filtration through a 0.22-μm nylon filter disk and maintained at 37° C. The apparatus was rotated at 50 rpm for each experiment. Aliquots were filtered immediately using 0.2-μm nylon syringe filters. In some cases, the undissolved solids were recovered and analyzed by X-ray powder diffraction (XRPD).
Diffracted radiation was detected by a NaI scintillation detector.

[5] = Desolvation by heating; type: physicochemical; conditions: about 125° C. for about five minutes
[6] = Moisture sorption/desorption; type: physicochemical
Method: Moisture sorption/desorption data were collected on a VTI SGA-100 moisture balance system. For sorption isotherms, a sorption range of 5 to 95% relative humidity (RH) and a desorption range of 95 to 5% RH in 10% RH increments was used for analysis. The sample was not dried prior to analysis. Equilibrium criteria used for analysis were less than 0.0100 weight percent change in 5 minutes with a maximum equilibration time of 3 hours if the weight criterion was not met. Data were not corrected for the initial moisture content of the samples.

form after stress storage ([1]; seven days at room temperature/0% RH): can convert to a new form, Form H | Solubility [2]: 4700 µg/mL (≈ 18.1 mM) | Solubility [3]: 4700 µg/mL (≈ 18.1 mM) | Cumulative Amount Dissolved per Unit Area ([4]; Experiment #1, 5 min): 2.70 mg/cm2 | Cumulative Amount Dissolved per Unit Area ([4]; Experiment #1, 10 min): 4.13 mg/cm2 | Cumulative Amount Dissolved per Unit Area ([4]; Experiment #1, 20 min): 6.96 mg/cm2 | Cumulative Amount Dissolved per Unit Area ([4]; Experiment #1, 30 min): 9.60 mg/cm2 | Cumulative Amount Dissolved per Unit Area ([4]; Experiment #1, 45 min): 12.57 mg/cm2 | Cumulative Amount Dissolved per Unit Area ([4]; Experiment #1, 60 min): 15.16 mg/cm2 | Cumulative Amount Dissolved per Unit Area ([4]; Experiment #1, 90 min): 20.82 mg/cm2 | Cumulative Amount Dissolved per Unit Area ([4]; Experiment #2, 5 min): 3.06 mg/cm2 | Cumulative Amount Dissolved per Unit Area ([4]; Experiment #2, 10 min): 4.31 mg/cm2 | Cumulative Amount Dissolved per Unit Area ([4]; Experiment #2, 20 min): 11.40 mg/cm2 | Cumulative Amount Dissolved per Unit Area ([4]; Experiment #2, 30 min): 11.93 mg/cm2 | Cumulative Amount Dissolved per Unit Area ([4]; Experiment #2, 45 min): 14.72 mg/cm2 | Cumulative Amount Dissolved per Unit Area ([4]; Experiment #2, 60 min): 18.52 mg/cm2 | Cumulative Amount Dissolved per Unit Area ([4]; Experiment #2, 90 min): 26.24 mg/cm2 | Cumulative Amount Dissolved per Unit Area ([4]; Experiment #2, 120 min): 33.56 mg/cm2 | Cumulative Amount Dissolved per Unit Area ([4]; Experiment #2, 150 min): 40.82 mg/cm2 | dissolution rates (estimated) ([4]; HCl buffer pH 1.8, 1% sodium lauryl sulfate): 0.23 mg/cm²/min | Final Form of undissolved solids after intrinsic dissolution (XRPD) ([4]; HCl buffer pH 1.8, 1% sodium lauryl sulfate, 37° C.): did not change | Average Intrinsic Dissolution Rate ([4]; average of experiments #1 and #2): 0.23 mg per cm^2 per minute | Intrinsic Dissolution #1 (rate) ([4]; experiment #1, 900 mL HCl buffer pH 1.8, 1% sodium lauryl sulfate, 37° C., 50 rpm): 0.21 mg per cm^2 per minute | Intrinsic Dissolution #2 (rate) ([4]; experiment #2, HCl buffer pH 1.8, 1% sodium lauryl sulfate, 37° C., 50 rpm): 0.25 mg per cm^2 per minute | form after heating (desolvation) [5]: can convert to Form B | weight lost from start to finish ([6]; at 5% relative humidity after drying from 95% back down to 5%): about 0.0528 % by weight
Compound: Nc1cccc2c1CN(C1CCC(=O)NC1=O)C2=O (stereo not shown) [Form E, 3-(4-amino-1-oxo-1,3 dihydro-isoindol-2-yl)-piperidine-2,6-dione]
form after stress storage ([1]; about 85 days, room temperature/0% RH and 40° C./93% RH): typically does not convert to a different form | weight gain on moisture sorption ([6]; from 5 to 95% relative humidity): does not exhibit a significant weight change
